Measurements reported in patent US8372850B2, “Aminopyridines and aminopyrimidines useful as inhibitors of protein kinases” (Vertex Pharmaceuticals Incorporated, priority 2006, dated 2013).

Molecular target: T1, GSK-3β(AA 1-420) (Homo sapiens, UniProt P49841)
T1 construct: GSK-3β(AA 1-420)
T1 sequence (P49841 whole entry, species assumed, the tested form may be a part): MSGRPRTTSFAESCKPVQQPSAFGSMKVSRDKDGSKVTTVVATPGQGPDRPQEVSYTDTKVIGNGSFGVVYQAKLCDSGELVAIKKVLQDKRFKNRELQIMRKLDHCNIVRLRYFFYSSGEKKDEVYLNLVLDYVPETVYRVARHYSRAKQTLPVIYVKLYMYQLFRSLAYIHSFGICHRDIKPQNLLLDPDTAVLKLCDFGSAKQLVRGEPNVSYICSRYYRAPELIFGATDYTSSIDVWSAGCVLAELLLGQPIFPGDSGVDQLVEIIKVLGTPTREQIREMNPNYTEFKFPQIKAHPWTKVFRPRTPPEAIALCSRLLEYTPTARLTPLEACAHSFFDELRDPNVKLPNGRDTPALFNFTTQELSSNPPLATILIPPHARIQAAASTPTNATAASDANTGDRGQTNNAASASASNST
Test: GSK-3 Inhibition Assay (standard coupled enzyme system)
Format: biochemical
Conditions: 20 μM ATP, 300 μM peptide, 20 nM GSK-3β, 30° C.
Experimental: Compounds of the present invention were screened for their ability to inhibit GSK-3β(AA 1-420) activity using a standard coupled enzyme system (Fox et al., Protein Sci. 1998, 7, 2249). Reactions were carried out in a solution containing 100 mM HEPES (pH 7.5), 10 mM MgCl2, 25 mM NaCl, 300 μM NADH, 1 mM DTT and 1.5% DMSO. Final substrate concentrations in the assay were 20 μM ATP (Sigma Chemicals, St Louis, Mo.) and 300 μM peptide (American Peptide, Sunnyvale, Calif.). Reactions were carried out at 30° C. and 20 nM GSK-3β. Final concentrations of the components of the coupled enzyme system were 2.5 mM phosphoenolpyruvate, 300 μM NADH, 30 μg/ml pyruvate kinase and 10 μg/ml lactate dehydrogenase.
An assay stock buffer solution was prepared containing all of the reagents listed above with the exception of ATP and the test compound of the present invention. The assay stock buffer solution (175 μl) was incubated in a 96 well plate with 5 μl of the test compound of the present invention at final concentrations spanning 0.002 μM to 30 μM at 30° C. for 10 min. Typically, a 12-point titration was conducted by preparing serial dilutions (from 10 mM compound stocks) with DMSO of the test compounds of the present invention in daughter plates. The reaction was initiated by the addition of 20 μl of ATP (final concentration 20 μM). Rates of reaction were obtained using a Molecular Devices Spectramax plate reader (Sunnyvale, Calif.) over 10 min at 30° C. The Ki values were determined from the rate data as a function of inhibitor concentration.
For `Cc1cc(Nc2cc(N3CCC3)nc(-c3ccccc3Cl)n2)n[nH]1` [Compound I-1, 6-(Azetidin-1-yl)-2-(2-chlorophenyl)-N-(5-methyl-1H-pyrazol-3-yl)pyrimidin-4-amine], the Ki was 50 to 500 nM. `Cc1cnc(Nc2cc(N3CCC3)nc(-c3ccccc3Cl)n2)s1` [Compound I-2] gave a Ki of under 50 nM. In the case of `Fc1cnc2[nH]nc(Nc3cc(N4CCC4)nc(-c4ccccc4Cl)n3)c2c1` [Compound I-3], the Ki is reported as under 50 nM. `Cc1cc(Nc2cc(N3CC(F)(F)C3)nc(-c3ccccc3Cl)n2)n[nH]1` [Compound I-4] gave a Ki of 50 to 500 nM. `Cc1cc(Nc2cc(N3CC(F)(C4CC4)C3)nc(-c3ccccc3Cl)n2)n[nH]1` [Compound I-5] gave a Ki of 50 to 500 nM. `Cc1cc(Nc2cc(N3CC(O)(C(C)(C)C)C3)nc(-c3ccccc3Cl)n2)n[nH]1` [Compound I-8] gave a Ki of 1000 to 5000 nM. `Fc1cnc2[nH]nc(Nc3cc(N4CC(F)(C5CC5)C4)nc(-c4ccccc4Cl)n3)c2c1` [Compound I-9] gave a Ki of under 50 nM. For `OC1(C2CC2)CN(c2cc(Nc3n[nH]c4ccc(F)cc34)nc(-c3ccccc3Cl)n2)C1` [Compound I-10], the Ki was 50 to 500 nM. In the case of `OC1(C2CC2)CN(c2cc(Nc3n[nH]c4ncc(F)cc34)nc(-c3ccccc3Cl)n2)C1` [Compound I-11], the Ki is reported as under 50 nM. `Cc1cc(Nc2cc(C3CNC3)nc(-c3ccccc3Cl)n2)n[nH]1` [Compound I-12, 6-(Azetidin-3-yl)-2-(2-chlorophenyl)-N-(5-methyl-1H-pyrazol-3-yl)pyrimidin-4-amine] gave a Ki of 50 to 500 nM.

Same assay, conditions: range printed with mixed units (500 nM to 1 uM); 20 μM ATP, 30° C.
`Cc1cc(Nc2cc(N3CC(O)(C4CC4)C3)nc(-c3ccccc3Cl)n2)n[nH]1` [Compound I-6] showed a Ki of 500 to 1000 nM. With `Cc1cc(Nc2cc(N3CC(C)(O)C3)nc(-c3ccccc3Cl)n2)n[nH]1` [Compound I-7] the Ki was 500 to 1000 nM.

Test system: rat brains after transient middle cerebral artery occlusion (MCAO)
Test: not given
Conditions: cited from earlier work
In the case of “IGF-1: IGF-1 (insulin growth factor-1), a known GSK-3 inhibitor”, the infarct size is given as “reduced infarct size”.
